Reference: patent US6737383B1, “Herbicidal oxadiazolidines” (priority 1999, dated 2004)

Columns and labels:
bedstraw = experiment: Test B pre/postemergence bedstraw; format: in vivo, Galium aparine; settings: Postemergence
In short: (§1)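 Herbicidal effect was estimated by eye on a ten-point control scale after plants spent twelve to sixteen days in a greenhouse following soil or foliar treatment. Foliar sprays targeted plants at one to four leaves; all doses were formulated in a non-phytotoxic solvent with surfactant.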

cocklebur = experiment: Test B pre/postemergence cocklebur; format: in vivo, Xanthium strumarium
In short: as §1

corn = experiment: Test B pre/postemergence corn; format: in vivo, Zea mays
In short: as §1

crabgrass = experiment: Test B pre/postemergence crabgrass; format: in vivo, Digitaria sanguinalis
In short: as §1

giant foxtail = experiment: Test B pre/postemergence giant foxtail; format: in vivo, Setaria faberii
In short: as §1

morningglory = experiment: Test B pre/postemergence morningglory; format: in vivo, Ipomoea hederacea
In short: as §1

pigweed = experiment: Test B pre/postemergence pigweed; format: in vivo, Amaranthus retroflexus
In short: as §1

rape = experiment: Test B pre/postemergence rape; format: in vivo, Brassica napus
In short: as §1

soybean = experiment: Test B pre/postemergence soybean; format: in vivo, Glycine max
In short: as §1

velvetleaf = experiment: Test B pre/postemergence velvetleaf; format: in vivo, Abutilon theophrasti
In short: as §1

wheat = experiment: Test B pre/postemergence wheat; format: in vivo, Triticum aestivum
In short: as §1

wild oat = experiment: Test B pre/postemergence wild oat; format: in vivo, Avena fatua
In short: as §1

purple nutsedge = experiment: Test B pre/postemergence purple nutsedge; format: in vivo, Cyperus rotundus
In short: as §1

rice = experiment: Test B flood test rice; format: in vivo, Oryza sativa
In short: (§2)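 Each value is a visual injury score relative to controls, with 10 meaning complete control and 0 no effect. Evaluation took place twelve to sixteen days after the 2-leaf-stage plants were treated and kept in the greenhouse.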

smallflower flatsedge = experiment: Test B flood test smallflower flatsedge; format: in vivo, Cyperus difformis
In short: as §2

duck salad = experiment: Test B flood test duck salad; format: in vivo, Heteranthera limosa
In short: as §2

[1] = Postemergence, Rate 250 g/ha, scale 0 to 10
[2] = Postemergence, Rate 500 g/ha, scale of 0 to 10 where 0 is no effect and 10 is complete control
[3] = Preemergence, Rate 62 g/ha, scale 0 to 10 (0 no effect, 10 complete control)
[4] = Preemergence, Rate 125 g/ha, scale of 0 to 10 where 0 is no effect and 10 is complete control
[5] = Preemergence, Rate 250 g/ha, scale 0 to 10, 0 is no effect, 10 is complete control
[6] = Preemergence, Rate 500 g/ha, scale 0 to 10, 0 is no effect, 10 is complete control
[7] = Rate 62 g/ha, Postemergence, scale 0 to 10 (0 no effect, 10 complete control)
[8] = Rate 125 g/ha, Postemergence, scale 0 to 10, 0 is no effect, 10 is complete control
[9] = Postemergence block (flood test species), Rate 250 g/ha, scale 0 to 10
[10] = Postemergence section (flood test species), Rate 500 g/ha, scale of 0 to 10 where 0 is no effect and 10 is complete control
[11] = Rate 62 g/ha, Postemergence (flood test), scale 0 to 10, 0 no effect, 10 complete control
[12] = Rate 125 g/ha, Postemergence section (flood test species), scale 0 to 10, 0 is no effect, 10 is complete control

CC(C)N(C(=O)n1oc(=O)n(C(C)C#N)c1=O)c1ccccc1 (stereo not drawn) [Compound 435]
Bedstraw plant response rating (bedstraw; Rate 250 g/ha, scale 0 to 10): 0 | Bedstraw plant response rating (bedstraw; Rate 500 g/ha, scale of 0 to 10 where 0 is no effect and 10 is complete control): 0 | Bedstraw plant response rating (bedstraw; Rate 62 g/ha, scale 0 to 10 (0 no effect, 10 complete control)): 0 | Bedstraw plant response rating (bedstraw; Rate 125 g/ha, scale 0 to 10, 0 is no effect, 10 is complete control): 0 | Cocklebur plant response rating (cocklebur; [1]): 0 | Cocklebur plant response rating (cocklebur; [2]): 0 | Plant response rating, Cocklebur (cocklebur; [3]): 0 | Plant response rating, Cocklebur (cocklebur; [4]): 0 | Cocklebur plant response rating (cocklebur; [5]): 0 | Cocklebur plant response rating (cocklebur; [6]): 0 | Cocklebur plant response rating (cocklebur; [7]): 0 | Cocklebur plant response rating (cocklebur; [8]): 0 | Corn plant response rating (corn; [1]): 0 | Corn plant response rating (corn; [2]): 0 | Plant response rating, Corn (corn; [3]): 0 | Plant response rating, Corn (corn; [4]): 0 | Corn plant response rating (corn; [5]): 0 | Corn plant response rating (corn; [6]): 0 | Corn plant response rating (corn; [7]): 0 | Corn plant response rating (corn; [8]): 0 | Crabgrass plant response rating (crabgrass; [1]): 7 | Crabgrass plant response rating (crabgrass; [2]): 8 | Plant response rating, Crabgrass (crabgrass; [4]): 2 | Crabgrass plant response rating (crabgrass; [5]): 6 | Crabgrass plant response rating (crabgrass; [6]): 9 | Crabgrass plant response rating (crabgrass; [7]): 0 | Crabgrass plant response rating (crabgrass; [8]): 2 | Giant foxtail plant response rating (giant foxtail; [1]): 8 | Giant foxtail plant response rating (giant foxtail; [2]): 9 | Plant response rating, Giant foxtail (giant foxtail; [3]): 0 | Plant response rating, Giant foxtail (giant foxtail; [4]): 2 | Giant foxtail plant response rating (giant foxtail; [5]): 3 | Giant foxtail plant response rating (giant foxtail; [6]): 9 | Giant foxtail plant response rating (giant foxtail; [7]): 0 | Giant foxtail plant response rating (giant foxtail; [8]): 3 | Morningglory plant response rating (morningglory; [1]): 6 | Morningglory plant response rating (morningglory; [2]): 9 | Plant response rating, Morningglory (morningglory; [3]): 0 | Plant response rating, Morningglory (morningglory; [4]): 0 | Morningglory plant response rating (morningglory; [5]): 0 | Morningglory plant response rating (morningglory; [6]): 0 | Morningglory plant response rating (morningglory; [7]): 1 | Morningglory plant response rating (morningglory; [8]): 2 | Redroot pigweed plant response rating (pigweed; [1]): 2 | Redroot pigweed plant response rating (pigweed; [2]): 2 | Plant response rating, Redroot pigweed (pigweed; [3]): 2 | Plant response rating, Redroot pigweed (pigweed; [4]): 2 | Redroot pigweed plant response rating (pigweed; [5]): 4 | Redroot pigweed plant response rating (pigweed; [6]): 8 | Redroot pigweed plant response rating (pigweed; [7]): 0 | Redroot pigweed plant response rating (pigweed; [8]): 0 | Rape plant response rating (rape; [1]): 0 | Rape plant response rating (rape; [2]): 0 | Plant response rating, Rape (rape; [3]): 0 | Plant response rating, Rape (rape; [4]): 0 | Rape plant response rating (rape; [5]): 0 | Rape plant response rating (rape; [6]): 0 | Rape plant response rating (rape; [7]): 0 | Rape plant response rating (rape; [8]): 0 | Soybean plant response rating (soybean; [1]): 1 | Soybean plant response rating (soybean; [2]): 3 | Plant response rating, Soybean (soybean; [3]): 0 | Plant response rating, Soybean (soybean; [4]): 0 | Soybean plant response rating (soybean; [5]): 0 | Soybean plant response rating (soybean; [6]): 0 | Soybean plant response rating (soybean; [7]): 0 | Soybean plant response rating (soybean; [8]): 1 | Velvetleaf plant response rating (velvetleaf; [1]): 0 | Velvetleaf plant response rating (velvetleaf; [2]): 0 | Plant response rating, Velvetleaf (velvetleaf; [3]): 0 | Plant response rating, Velvetleaf (velvetleaf; [4]): 0 | Velvetleaf plant response rating (velvetleaf; [5]): 1 | Velvetleaf plant response rating (velvetleaf; [6]): 2 | Velvetleaf plant response rating (velvetleaf; [7]): 0 | Velvetleaf plant response rating (velvetleaf; [8]): 0 | Wheat plant response rating (wheat; [1]): 0 | Wheat plant response rating (wheat; [2]): 0 | Plant response rating, Wheat (wheat; [3]): 0 | Plant response rating, Wheat (wheat; [4]): 0 | Wheat plant response rating (wheat; [5]): 0 | Wheat plant response rating (wheat; [6]): 0 | Wheat plant response rating (wheat; [7]): 0 | Wheat plant response rating (wheat; [8]): 0 | Wild oats plant response rating (wild oat; [1]): 0 | Wild oats plant response rating (wild oat; [2]): 3 | Plant response rating, Wild oats (wild oat; [3]): 0 | Plant response rating, Wild oats (wild oat; [4]): 0 | Wild oats plant response rating (wild oat; [5]): 2 | Wild oats plant response rating (wild oat; [6]): 3 | Wild oats plant response rating (wild oat; [7]): 0 | Wild oats plant response rating (wild oat; [8]): 0 | Nutsedge plant response rating (purple nutsedge; [1]): 0 | Nutsedge plant response rating (purple nutsedge; [2]): 3 | Plant response rating, Nutsedge (purple nutsedge; [3]): 0 | Plant response rating, Nutsedge (purple nutsedge; [4]): 0 | Nutsedge plant response rating (purple nutsedge; [5]): 0 | Nutsedge plant response rating (purple nutsedge; [6]): 0 | Nutsedge plant response rating (purple nutsedge; [7]): 0 | Nutsedge plant response rating (purple nutsedge; [8]): 0 | Rice plant response rating (rice; [9]): 0 | Rice plant response rating (rice; [10]): 0 | Rice plant response rating (rice; [11]): 0 | Rice plant response rating (rice; [12]): 0 | S. Flatsedge plant response rating (smallflower flatsedge; [9]): 0 | S. Flatsedge plant response rating (smallflower flatsedge; [10]): 0 | S. Flatsedge plant response rating (smallflower flatsedge; [11]): 0 | S. Flatsedge plant response rating (smallflower flatsedge; [12]): 0 | Ducksalad plant response rating (duck salad; [9]): 0 | Ducksalad plant response rating (duck salad; [10]): 0 | Ducksalad plant response rating (duck salad; [11]): 0 | Ducksalad plant response rating (duck salad; [12]): 0
